Laboratory results taken from patent publication US10525139B2, “Folate-conjugated molecules for delivery of toxic small molecule inhibitors to cancer cells and methods of use” (priority 2014, dated 2020).
“Also recorded” adds a separate entry of the source.

Columns and labels:
SERCA2 = molecular target: T1, SERCA2 (Homo sapiens, UniProt P16615); test: Competitive pull-down with Thap-Biotin in T-ALL lysates, immunoblot; assay type: binding; conditions: ALL/SIL lysates, increasing concentrations of free Thap-OH
T1 construct: Lysates from T-ALL cells (ALL/SIL) were co-treated with the indicated concentrations of biotinylated thapsigargin or Thap-OH; endogenous in cells; host or cells: ALL/SIL T-ALL cells (lysate)
Protocol: (§1) Lysates from T-ALL cells (ALL/SIL) were co-treated with the indicated concentrations of biotinylated thapsigargin or Thap-OH for 6 hours and subjected to streptavidin pulldown for 24 hours. The immunoblot was stained with SERCA2 and SERCA3 antibodies. […] Statistical significance for mutated vs WT (*P≤:0.05, **P≤0.01) was determined by one-way ANOVA with Bonferroni's correction for multiple comparison testing. […] NOTCH1 (N1) was detected with an antibody against the C-terminus of NOTCH1 that recognizes the […] NOTCH1 transmembrane subunit (TM) and the unprocessed NOTCH1 precursor (FL). GAPDH was used as loading control. […] Immunoblot was stained with an antibody against FR2. Vinculin was used as a loading control.
(§2) To test the hypothesis that Thap-OH targets SERCA in T-ALL cells, we first performed a competitive pull-down assay in which protein lysates were treated with a novel biotinylated derivative of thapsigargin (Thap-Biotin), alone or in the presence of increasing concentrations of free, competitive Thap-OH.

SERCA3 = molecular target: T2, SERCA3 (Homo sapiens, UniProt Q93084); test: as above; assay type: binding; conditions: ALL/SIL lysates, increasing concentrations of free Thap-OH
T2 construct: Lysates from T-ALL cells (ALL/SIL) were co-treated with the indicated concentrations of biotinylated thapsigargin or Thap-OH; endogenous in cells; host or cells: ALL/SIL T-ALL cells (lysate)
Protocol: as §1, §2

NOTCH1 [1] = test: NOTCH1 cell surface staining by flow cytometry; assay type: cell-based, human; conditions: T-ALL cells; for NOTCH1 expression on the cell surface: 24 hours
Excerpt: (§3) We previously described that the SERCA inhibitors thapsigargin and cyclopiazonic acid impair NOTCH1 maturation leading to an accumulation of full-length, unprocessed polypeptides in the endoplasmic reticulum/Golgi subcellular compartment. An immediate consequence of SERCA inhibition is a decrement in NOTCH1 protein display on the surface of T-ALL cells. […] To further support the hypothesis that Thap-OH impairs mutant NOTCH1 maturation, we evaluated levels of full-length, transmembrane and activated NOTCH1 (ICN1) by WB. Lysates from T-ALL cell lines treated with 1 μM Thap-OH were immunoblotted with an antibody specific for the cytoplasmic portion of NOTCH1 that recognizes both unprocessed NOTCH1 (FL-N1) (˜270 kDa) and the furin-processed transmembrane subunit (TM-N1) (˜110 kDa).
(§4) The NOTCH loss was measured via flow cytometry. […] The recapitulation of the thapsigargin effect by JQ-FT is hypothesized to be due to the delivery strategy introduced by folate. […] Here cell growth was assessed using the Promega Cell-Titer Glo ATP-based assay (Promega, Madison, Wis., USA). Luminescence was measured using a Fluostar Omega instrument (BMG-labtech, Ortenberg, Germany).

NOTCH1 [2] = test: NOTCH1 processing and activation by western blot (FL-N1, TM-N1, ICN1); assay type: cell-based, human
Excerpt: as §3
Both Folate-Thap (JQ-FT) and Thap-OH were tested in T-ALL cell lines with 24 h treatment. […] Lysates were prepared after treatment with indicated doses of thapsigargin, JQ-FT or Thap-OH for 24 hr. The blot shown was stained with an antibody against the C-terminus of NOTCH1 that recognizes both the furin-processed NOTCH1 transmembrane subunit (TM) and the unprocessed NOTCH1 precursor (FL) (FIG. 2A). GAPDH was used as a loading control. Western blots were stained with antibodies specific for γ-secretase-cleaved NOTCH 1 ([…], Cell Signaling, Beverly, Mass., USA), or the C-terminus of NOTCH1 (SC-6014 (C-20) Santa Cruz Biotechnology, Santa Cruz, Calif., USA). Control stains were carried out with antibodies specific for GAPDH (137179, Santa Cruz Biotechnology). Blots were developed with anti-rabbit-HRP (NA9340V, Amersham, Pittsburgh, Pa., USA) or anti-mouse-HRP (NA9340V or NA9310V, Amersham). Staining was quantified using ImageQuant TI V 7.0 (GE Health Care, Piscataway, N.J., USA).

T-ALL cell lines [3] = test: T-ALL cell viability / growth (ATP content, Cell-Titer Glo); assay type: cell-based, human; conditions: 72 hours
Protocol: Thus, cell lines carrying NOTCH1 alleles with HD domain, mutations were more sensitive to Thap-OH than cells with WT NOTCH1 alleles.
As a further test of the idea that JQ-FT acts by preventing NOTCH1 activation in a manner similar to thapsigargin, the NOTCH1-dependent T-ALL cell lines RPMI-8402 were transduced with empty MigRI vector or with ICN1, which lies downstream of the γ-secretase cleavage step in Notch activation. Viral supernatant production and retroviral infections were performed as described for MigRI retroviral vectors (Aster, J. C., et al. “Essential roles for ankyrin repeat and transactivation domains in induction of T-cell leukemia by NOTCH1.” Mol. Cell. Biol. 2000; 20:7505-7515). Transduction efficiency for MigRI was monitored by assessing GFP expression with a FACScan flow cytometer (BD, Franklin Lakes, N.J., USA) (Aster et al., Mol. Cell. Biol. 2000; 20:7505-7515). After viral infection, GFP-positive cells were sorted by flow cytometry with a FACSAria II (BD, Franklin Lakes, N.J., USA). […] Therefore, JQ-FT can recapitulate the Thapsigargin effect with the delivery mechanism of folate.
as §4
The effects of JQ-FT in a panel of T-ALL cell lines that contain activating mutations in the HD domain of NOTCH1 and/or protein stabilizing deletions within the PEST degradation domain.

FR2 = FR2 expression by western blot after Thap-OH; assay type: cell-based, human; conditions: T-ALL cell lines, increasing concentrations of Thap-OH, 24 hours
Protocol: Thapsigargin is a known inducer of the unfolded protein response (UPR). As such, its derivatives may trigger a cellular response that affects the stable expression or trafficking of folate receptors. To exclude that FR2 is a target of UPR, we treated T-ALL cell lines with increasing concentrations of Thap-OH for 24 hours.

[4] = LCMS analysis of cell lysate and media; assay type: in vitro ADME; conditions: only after cells were treated with FT
Protocol: In order to validate the delivery of the Thap-OH, LCMS analysis of the cell lysate and the media was used to detect the presence of both Folate-Thap (FT) and Thap-OH. […] To directly visualize the folate delivery of a small molecule, folic acid derivatives with appended fluorophores were designed. Both Folate-FITC, suitable for flow cytometry studies, and Folate-TMARA, suitable for high-throughput fluorescence plate readers, were evaluated in vitro to determine the delivery mechanism.

T-ALL cell lines [5] = test: Uptake of fluorescent folate probes by flow cytometry in T-ALL cells; assay type: cell-based, human
Excerpt: To assess functional engagement of the folate receptor on T-ALL cells, we generated fluorescence-ragged folic acid probes. FL-TAMRA and FL-FITC, as tool compounds (FIG. 7, panel c). […] Taken together, these observations indicate that functional FR2 expression is increased in T-ALL compared to normal cells, further supporting a rationale for folate-mediated delivery in leukemia.
To explore the mechanism of binding and delivery of folate-conjugates in T-ALL, we performed competition and temperature sensitivity studies of the FL-FITC probe. The T-ALL cell Sine RPMI 8402 was engineered to overexpress either FR1 or FR2 and was then treated with increasing concentrations of FL-FITC. […] We next addressed whether folic acid could compete with the FL-FITC probe for uptake. T-ALL cells were grown in medium depleted of folic acid for 48 hours, treated with FL-FITC (1 or 10 μM), and assessed by flow cytometry. […]
In order to validate the delivery of the Thap-OH, LCMS analysis of the cell lysate and the media was used to detect the presence of both Folate-Thap (FT) and Thap-OH. […] Both Folate-FITC, suitable for flow cytometry studies, and Folate-TMARA, suitable for high-throughput fluorescence plate readers, were evaluated in vitro to determine the delivery mechanism.

T1 sequence (P16615 whole entry): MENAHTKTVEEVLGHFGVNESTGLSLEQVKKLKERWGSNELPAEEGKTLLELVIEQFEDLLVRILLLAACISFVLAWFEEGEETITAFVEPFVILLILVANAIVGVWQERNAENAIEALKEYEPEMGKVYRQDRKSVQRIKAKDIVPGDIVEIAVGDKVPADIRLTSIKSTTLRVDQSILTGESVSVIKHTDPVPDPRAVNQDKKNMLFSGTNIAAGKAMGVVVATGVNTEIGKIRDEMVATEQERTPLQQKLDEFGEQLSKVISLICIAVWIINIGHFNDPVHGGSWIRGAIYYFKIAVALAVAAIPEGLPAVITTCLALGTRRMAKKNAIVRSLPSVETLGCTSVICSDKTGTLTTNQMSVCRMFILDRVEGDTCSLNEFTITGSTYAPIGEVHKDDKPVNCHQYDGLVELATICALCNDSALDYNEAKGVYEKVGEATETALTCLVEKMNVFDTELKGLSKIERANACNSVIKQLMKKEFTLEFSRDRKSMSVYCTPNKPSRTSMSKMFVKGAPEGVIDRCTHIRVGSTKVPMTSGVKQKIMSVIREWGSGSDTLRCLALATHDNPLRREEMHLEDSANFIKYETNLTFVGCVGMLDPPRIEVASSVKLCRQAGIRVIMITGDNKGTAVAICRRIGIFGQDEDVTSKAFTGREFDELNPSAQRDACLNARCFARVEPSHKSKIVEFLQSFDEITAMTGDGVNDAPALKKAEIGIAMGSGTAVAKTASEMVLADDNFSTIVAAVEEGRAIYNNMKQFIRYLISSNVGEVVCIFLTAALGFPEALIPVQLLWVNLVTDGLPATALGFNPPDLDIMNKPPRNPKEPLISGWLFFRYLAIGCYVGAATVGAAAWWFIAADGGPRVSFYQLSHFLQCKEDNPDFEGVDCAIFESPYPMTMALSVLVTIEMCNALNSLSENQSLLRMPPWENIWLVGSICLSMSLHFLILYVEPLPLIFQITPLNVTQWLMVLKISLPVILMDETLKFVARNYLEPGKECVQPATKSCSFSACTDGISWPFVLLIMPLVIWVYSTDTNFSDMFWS
T2 sequence (Q93084 whole entry): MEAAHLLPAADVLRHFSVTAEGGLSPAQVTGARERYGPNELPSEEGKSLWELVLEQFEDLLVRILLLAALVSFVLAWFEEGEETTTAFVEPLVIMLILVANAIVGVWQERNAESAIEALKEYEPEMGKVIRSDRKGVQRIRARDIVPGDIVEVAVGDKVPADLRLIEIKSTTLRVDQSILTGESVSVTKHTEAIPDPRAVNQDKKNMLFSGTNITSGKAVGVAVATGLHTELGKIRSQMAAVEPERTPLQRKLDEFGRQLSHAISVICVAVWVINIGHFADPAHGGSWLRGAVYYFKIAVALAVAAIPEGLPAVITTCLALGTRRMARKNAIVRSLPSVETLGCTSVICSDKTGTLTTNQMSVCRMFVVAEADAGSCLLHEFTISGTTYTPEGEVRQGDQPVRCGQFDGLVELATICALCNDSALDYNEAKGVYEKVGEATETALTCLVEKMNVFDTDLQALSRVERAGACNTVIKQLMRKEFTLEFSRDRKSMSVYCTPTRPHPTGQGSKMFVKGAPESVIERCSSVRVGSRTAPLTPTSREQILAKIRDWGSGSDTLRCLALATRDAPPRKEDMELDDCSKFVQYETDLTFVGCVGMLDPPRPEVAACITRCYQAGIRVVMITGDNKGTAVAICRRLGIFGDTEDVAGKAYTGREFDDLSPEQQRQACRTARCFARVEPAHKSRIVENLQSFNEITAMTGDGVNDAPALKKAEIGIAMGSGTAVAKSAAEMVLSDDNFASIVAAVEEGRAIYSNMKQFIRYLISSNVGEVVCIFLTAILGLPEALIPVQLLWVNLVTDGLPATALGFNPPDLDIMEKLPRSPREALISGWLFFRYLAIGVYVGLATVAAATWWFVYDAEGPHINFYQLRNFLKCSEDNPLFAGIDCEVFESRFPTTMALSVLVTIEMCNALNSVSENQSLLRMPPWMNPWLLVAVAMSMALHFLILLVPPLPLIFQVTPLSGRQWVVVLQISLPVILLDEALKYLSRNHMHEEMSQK

Compound: C/C=C(/C)C(=O)O[C@H]1C(C)=C2[C@H]([C@@H]1OC(=O)CCCCCCC)[C@@](C)(OC(C)=O)C[C@H](O)[C@@]1(O)[C@H]2OC(=O)[C@@]1(C)O [Thap-OH, 8-O-debutanoylthapsigargin]
- competition with biotinylated thapsigargin for SERCA2 (SERCA2): competed off biotinylated thapsigargin
- competition with biotinylated thapsigargin for SERCA3 (SERCA3): competed off biotinylated thapsigargin
- effect on cell surface NOTCH1 compared with thapsigargin (NOTCH1 [1]): less potent than the natural product; also recorded: reduced effect
- NOTCH1 expression on the cell surface (NOTCH1 [1]): concentration-dependent reduction in NOTCH1 expression on the cell surface; also recorded: show NOTCH loss
- furin-processed transmembrane NOTCH1 subunit (TM-N1) level (NOTCH1 [2]; T-ALL cell lines with HD mutations, 24 h, Thap-OH at 1 μM): reduced the levels of the furin-processed transmembrane NOTCH1 subunit
- ICN1 level (NOTCH1 [2]; T-ALL cell lines, 24 h): decreased ICN1 levels
- unprocessed full-length NOTCH1 (FL-N1) level (NOTCH1 [2]; T-ALL cell lines, 24 h): not the unprocessed full-length NOTCH1 precursor
- activity on NOTCH1 processing relative to JQ-FT (NOTCH1 [2]; T-ALL cell lines, 24 h treatment): much lower activity
- NOTCH1 maturation in NOTCH1 WT cell lines (NOTCH1 [2]; WT cell lines (Loucy, MOLT16), concentrations tested): no effect on NOTCH1 maturation in the WT cell lines
- T-ALL cell viability (T-ALL cell lines [3]; Thap-OH, dose-ranging ATP content assays): decrease in T-ALL cell viability
- sensitivity of NOTCH1 mutant versus WT T-ALL cells (T-ALL cell lines [3]; mutated (ALL/SIL, DND41, PF382, RPMI 8402) vs WT (Loucy, MOLT16, SUPT11)): mutant T-ALL cells were more sensitive to the effects of Thap-OH than NOTCH1 WT cells
- FR2 expression (FR2): No change in FR2 expression
- detection of released Thap-OH in cell lysate [4]: detected in cell lysate

Compound: CCCCC[C@@H](O)[C@H]1C(=O)O[C@H](C)[C@@H](O)/C=C/C=C/C=C/C=C/C=C(\C)[C@@H](O)C[C@H](O)C[C@H](O)C[C@H](O)C[C@H](O)C[C@H](O)C[C@@H]1O [filipin]
- mean percentage reduction of FITC fluorescence signal (T-ALL cell lines [5]; four T-ALL cell lines pretreated with 10 μM filipin, 10 μM FL-FITC): 38.9±2.5 percentage

Compound: Nc1nc2ncc(CNc3ccc(C(=O)N[C@@H](CCC(=O)O)C(=O)O)cc3)nc2c(=O)[nH]1 [folic acid]
- competition of free folic acid with folate derivatives for uptake (T-ALL cell lines [5]; free folic acid added to T-ALL culture): competed away the folate derivatives; also recorded: competes with folate-FITC

Compound: C/C=C(/C)C(=O)O[C@H]1C(C)=C2[C@H]([C@@H]1OC(=O)CCCCCCC)[C@@](C)(OC(C)=O)C[C@H](OC(=O)CCC)[C@@]1(O)[C@H]2OC(=O)[C@@]1(C)O [thapsigargin, Thapsigargin, reference compound]
- NOTCH1 expression on the cell surface (NOTCH1 [1]): concentration-dependent reduction in NOTCH1 expression on the cell surface
